Measurements as given in publication PMC10778824, “New Chalcone Derivatives Containing 2,4-Dichlorobenzenesulfonamide Moiety with Anticancer and Antioxidant Properties” (International Journal of Molecular Sciences, 2023).

Assay: Annexin V and dead cell assay (flow cytometry)
Assay type: cell-based, human
Conditions: human, AGS cells, 10 µg/mL, read-out: live cells (viability)
Protocol: To estimate the viability and induction of apoptosis/necrosis in the population of AGS cells treated with compound 5, the Muse Annexin V and a Dead Cell Assay Kit (Merck Millipore, Burlington, MA, USA) were used. The cells were seeded in 12-well plates (1 × 10^5 cells/well) and incubated with the compound at concentrations of 1, 5, and 10 µg/mL. […] After 24 h, the cells were stained with the kit reagents, namely, annexin V and 7-AAD (7-aminoactinomycin), and analyzed by flow cytometry (Muse Cell Analyzer, Merck Millipore, Burlington, MA, USA). The experiments were performed in three independent repeats.

SMILES: Cc1cc(S(=O)(=O)Nc2ccc(C(=O)/C=C/c3ccc(Br)cc3)cc2)c(Cl)cc1Cl [Compound 5, (E)-N-{4-[3-(4-Bromophenyl)acryloyl]phenyl}-2,4-Dichloro-5-Methylbenzenesulfonamide]
- viability at 24 h, 10 µg/mL: 29%
